# Assay results from ChEMBL document CHEMBL3885881, “DrugMatrix”.
# Species: Rattus norvegicus
# Assay: DrugMatrix - Regimen: Daily Repeat
# Format: toxicity, organism-based, Sprague-Dawley
# Design: regimen Daily Repeat, gender Male, age 6-8 weeks
# Settings: in vivo, po, […], route oral GAVAGE; for ABSOLUTE BASOPHIL / ABSOLUTE EOSINOPHIL / ABSOLUTE LYMPHOCYTE / ABSOLUTE MONOCYTE / ABSOLUTE SEGMENTED NEUTROPHIL / BASOPHIL / EOSINOPHIL / ERYTHROCYTE COUNT / HEMATOCRIT / HEMOGLOBIN / LEUKOCYTE COUNT / LYMPHOCYTE / MEAN CORPUSCULAR HEMOGLOBIN / MEAN CORPUSCULAR HEMOGLOBIN CONCENTRATION / MEAN CORPUSCULAR VOLUME / MONOCYTE / NEUTROPHIL / NUCLEATED RED BLOOD CELLS / PLATELET COUNT: tissue Blood; for ALANINE AMINOTRANSFERASE / ALBUMIN / ALKALINE PHOSPHATASE / ASPARTATE AMINOTRANSFERASE / BLOOD UREA NITROGEN / CARBON DIOXIDE / CHLORIDE / CHOLESTEROL / CREATINE PHOSPHOKINASE / CREATININE / GLUCOSE / LACTATE DEHYDROGENASE / LIPASE / PHOSPHORUS / POTASSIUM / SODIUM / TOTAL BILIRUBIN / TOTAL PROTEIN / URIC ACID: tissue Plasma
# [1] = 400 mg/kg, dose level Low, time 7 day
# [2] = 1175 mg/kg, 72 h, dose level High, time 3 day
# [3] = 1175 mg/kg, dose level High, time 7 day
smiles,measurement,setting,value
ClC(Cl)(Cl)Cl [CARBON TETRACHLORIDE],ABSOLUTE BASOPHIL,[1],0 CELLS/uL
same,ABSOLUTE EOSINOPHIL,[1],0 CELLS/uL
same,ABSOLUTE LYMPHOCYTE,[1],12903.17 CELLS/uL
same,ABSOLUTE MONOCYTE,[1],339.83 CELLS/uL
same,ABSOLUTE SEGMENTED NEUTROPHIL,[1],990.33 CELLS/uL
same,BASOPHIL,[1],0%
same,EOSINOPHIL,[1],0%
same,ERYTHROCYTE COUNT,[1],6.32 x10E6/uL
same,HEMATOCRIT,[1],37.03%
same,HEMOGLOBIN,[1],14.83 G/DL
same,LEUKOCYTE COUNT,[1],14.23 x10E3/uL
same,LYMPHOCYTE,[1],90.33%
same,MEAN CORPUSCULAR HEMOGLOBIN,[1],23.5 pg
same,MEAN CORPUSCULAR HEMOGLOBIN CONCENTRATION,[1],40.08 G/DL
same,MEAN CORPUSCULAR VOLUME,[1],58.68 fL
same,MONOCYTE,[1],2.17%
same,NEUTROPHIL,[1],7.5%
same,NUCLEATED RED BLOOD CELLS,[1],0 /100WBC
same,PLATELET COUNT,[1],869.5 x10E3/uL
same,ALANINE AMINOTRANSFERASE,[1],295.83 u/L
same,ALBUMIN,[1],4.12 G/DL
same,ALKALINE PHOSPHATASE,[1],598 u/L
same,ASPARTATE AMINOTRANSFERASE,[1],469.33 u/L
same,BLOOD UREA NITROGEN,[1],15.17 mg/dL
same,CARBON DIOXIDE,[1],29 mmol/L
same,CHLORIDE,[1],99.67 MEQ/L
same,CHOLESTEROL,[1],34.17 mg/dL
same,CREATINE PHOSPHOKINASE,[1],258.83 u/L
same,CREATININE,[1],0.27 mg/dL
same,GLUCOSE,[1],129 mg/dL
same,LACTATE DEHYDROGENASE,[1],176.83 u/L
same,LIPASE,[1],10 u/L
same,PHOSPHORUS,[1],9.22 mg/dL
same,POTASSIUM,[1],5.35 MEQ/L
same,SODIUM,[1],142.35 MEQ/L
same,TOTAL BILIRUBIN,[1],0.22 mg/dL
same,TOTAL PROTEIN,[1],5.88 G/DL
same,URIC ACID,[1],0.82 mg/dL
same,ABSOLUTE BASOPHIL,[2],0 CELLS/uL
same,ABSOLUTE EOSINOPHIL,[2],29 CELLS/uL
same,ABSOLUTE LYMPHOCYTE,[2],12136.5 CELLS/uL
same,ABSOLUTE MONOCYTE,[2],331.83 CELLS/uL
same,ABSOLUTE SEGMENTED NEUTROPHIL,[2],869.33 CELLS/uL
same,BASOPHIL,[2],0%
same,EOSINOPHIL,[2],0.33%
same,ERYTHROCYTE COUNT,[2],6.02 x10E6/uL
same,HEMATOCRIT,[2],37.65%
same,HEMOGLOBIN,[2],13.88 G/DL
same,LEUKOCYTE COUNT,[2],13.37 x10E3/uL
same,LYMPHOCYTE,[2],90.67%
same,MEAN CORPUSCULAR HEMOGLOBIN,[2],23.13 pg
same,MEAN CORPUSCULAR HEMOGLOBIN CONCENTRATION,[2],36.9 G/DL
same,MEAN CORPUSCULAR VOLUME,[2],62.75 fL
same,MONOCYTE,[2],2.5%
same,NEUTROPHIL,[2],6.5%
same,NUCLEATED RED BLOOD CELLS,[2],0.17 /100WBC
same,PLATELET COUNT,[2],800.67 x10E3/uL
same,ALANINE AMINOTRANSFERASE,[2],129 u/L
same,ALBUMIN,[2],3.92 G/DL
same,ALKALINE PHOSPHATASE,[2],531.5 u/L
same,ASPARTATE AMINOTRANSFERASE,[2],232.83 u/L
same,BLOOD UREA NITROGEN,[2],19.17 mg/dL
same,CARBON DIOXIDE,[2],31.33 mmol/L
same,CHLORIDE,[2],101.5 MEQ/L
same,CHOLESTEROL,[2],41.67 mg/dL
same,CREATINE PHOSPHOKINASE,[2],258.5 u/L
same,CREATININE,[2],0.28 mg/dL
same,GLUCOSE,[2],144.83 mg/dL
same,LACTATE DEHYDROGENASE,[2],110 u/L
same,LIPASE,[2],10.5 u/L
same,PHOSPHORUS,[2],9.55 mg/dL
same,POTASSIUM,[2],5.46 MEQ/L
same,SODIUM,[2],145.42 MEQ/L
same,TOTAL BILIRUBIN,[2],0.1 mg/dL
same,TOTAL PROTEIN,[2],5.68 G/DL
same,URIC ACID,[2],0.45 mg/dL
same,ABSOLUTE BASOPHIL,[3],0 CELLS/uL
same,ABSOLUTE EOSINOPHIL,[3],0 CELLS/uL
same,ABSOLUTE LYMPHOCYTE,[3],11238.67 CELLS/uL
same,ABSOLUTE MONOCYTE,[3],252 CELLS/uL
same,ABSOLUTE SEGMENTED NEUTROPHIL,[3],1109.33 CELLS/uL
same,BASOPHIL,[3],0%
same,EOSINOPHIL,[3],0%
same,ERYTHROCYTE COUNT,[3],6.55 x10E6/uL
same,HEMATOCRIT,[3],37.82%
same,HEMOGLOBIN,[3],14.68 G/DL
same,LEUKOCYTE COUNT,[3],12.6 x10E3/uL
same,LYMPHOCYTE,[3],89%
same,MEAN CORPUSCULAR HEMOGLOBIN,[3],22.53 pg
same,MEAN CORPUSCULAR HEMOGLOBIN CONCENTRATION,[3],38.87 G/DL
same,MEAN CORPUSCULAR VOLUME,[3],57.97 fL
same,MONOCYTE,[3],2%
same,NEUTROPHIL,[3],9%
same,NUCLEATED RED BLOOD CELLS,[3],0 /100WBC
same,PLATELET COUNT,[3],761 x10E3/uL
same,ALANINE AMINOTRANSFERASE,[3],302 u/L
same,ALBUMIN,[3],3.77 G/DL
same,ALKALINE PHOSPHATASE,[3],779.83 u/L
same,ASPARTATE AMINOTRANSFERASE,[3],589.83 u/L
same,BLOOD UREA NITROGEN,[3],17.67 mg/dL
same,CARBON DIOXIDE,[3],30.5 mmol/L
same,CHLORIDE,[3],98.83 MEQ/L
same,CHOLESTEROL,[3],26.5 mg/dL
same,CREATINE PHOSPHOKINASE,[3],269.67 u/L
same,CREATININE,[3],0.24 mg/dL
same,GLUCOSE,[3],122.83 mg/dL
same,LACTATE DEHYDROGENASE,[3],182.5 u/L
same,LIPASE,[3],9.17 u/L
same,PHOSPHORUS,[3],9.22 mg/dL
same,POTASSIUM,[3],5.74 MEQ/L
same,SODIUM,[3],142.6 MEQ/L
same,TOTAL BILIRUBIN,[3],0.22 mg/dL
same,TOTAL PROTEIN,[3],5.7 G/DL
same,URIC ACID,[3],0.47 mg/dL
